Results on one compound are retold here after patent US6645991B1, “αvβ3 integrin inhibitors” (Merck Patent GmbH, priority 1999, dated 2003).

The target of this assay is receptor αvβ3 (Homo sapiens, UniProt P05106+P06756). Put plainly: vitronectin binding test (method of Smith et al.). The source says: For the vitronectin binding test, the IC50 value is given, i.e. the concentration in nmol/litre which inhibits 50% of the vitronectin binding to the corresponding isolated receptor (method of Smith et al., J. Biol. Chem. 265, 12267-71, 1990).
Sequence of receptor αvβ3 (P06756 31-889 limits assumed): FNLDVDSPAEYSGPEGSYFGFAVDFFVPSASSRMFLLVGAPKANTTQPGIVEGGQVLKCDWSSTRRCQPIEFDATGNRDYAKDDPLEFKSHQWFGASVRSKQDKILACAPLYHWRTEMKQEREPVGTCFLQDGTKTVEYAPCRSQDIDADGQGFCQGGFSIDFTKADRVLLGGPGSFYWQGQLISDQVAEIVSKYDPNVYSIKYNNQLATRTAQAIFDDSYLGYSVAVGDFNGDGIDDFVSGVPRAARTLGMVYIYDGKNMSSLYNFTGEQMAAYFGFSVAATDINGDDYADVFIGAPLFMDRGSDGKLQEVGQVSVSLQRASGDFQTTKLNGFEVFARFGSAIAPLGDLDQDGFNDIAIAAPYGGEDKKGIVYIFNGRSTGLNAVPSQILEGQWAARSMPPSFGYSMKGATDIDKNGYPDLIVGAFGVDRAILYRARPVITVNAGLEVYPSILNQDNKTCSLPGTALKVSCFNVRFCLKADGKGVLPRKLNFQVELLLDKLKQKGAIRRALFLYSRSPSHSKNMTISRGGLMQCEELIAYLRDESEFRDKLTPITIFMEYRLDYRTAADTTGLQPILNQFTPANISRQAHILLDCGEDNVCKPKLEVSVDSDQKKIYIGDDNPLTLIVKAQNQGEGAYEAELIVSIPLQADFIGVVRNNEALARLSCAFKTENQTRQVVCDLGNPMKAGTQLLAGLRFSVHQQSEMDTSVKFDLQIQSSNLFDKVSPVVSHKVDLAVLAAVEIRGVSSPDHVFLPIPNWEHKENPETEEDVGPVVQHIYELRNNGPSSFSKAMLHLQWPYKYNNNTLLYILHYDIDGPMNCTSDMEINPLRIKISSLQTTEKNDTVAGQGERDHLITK
Sequence of receptor αvβ3 (P06756 891-1048 limits assumed): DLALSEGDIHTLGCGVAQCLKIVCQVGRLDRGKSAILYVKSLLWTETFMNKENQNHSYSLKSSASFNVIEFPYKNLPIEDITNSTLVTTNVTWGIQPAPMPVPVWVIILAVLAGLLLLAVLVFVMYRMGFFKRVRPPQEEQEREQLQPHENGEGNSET
Sequence of receptor αvβ3 (P05106 27-788): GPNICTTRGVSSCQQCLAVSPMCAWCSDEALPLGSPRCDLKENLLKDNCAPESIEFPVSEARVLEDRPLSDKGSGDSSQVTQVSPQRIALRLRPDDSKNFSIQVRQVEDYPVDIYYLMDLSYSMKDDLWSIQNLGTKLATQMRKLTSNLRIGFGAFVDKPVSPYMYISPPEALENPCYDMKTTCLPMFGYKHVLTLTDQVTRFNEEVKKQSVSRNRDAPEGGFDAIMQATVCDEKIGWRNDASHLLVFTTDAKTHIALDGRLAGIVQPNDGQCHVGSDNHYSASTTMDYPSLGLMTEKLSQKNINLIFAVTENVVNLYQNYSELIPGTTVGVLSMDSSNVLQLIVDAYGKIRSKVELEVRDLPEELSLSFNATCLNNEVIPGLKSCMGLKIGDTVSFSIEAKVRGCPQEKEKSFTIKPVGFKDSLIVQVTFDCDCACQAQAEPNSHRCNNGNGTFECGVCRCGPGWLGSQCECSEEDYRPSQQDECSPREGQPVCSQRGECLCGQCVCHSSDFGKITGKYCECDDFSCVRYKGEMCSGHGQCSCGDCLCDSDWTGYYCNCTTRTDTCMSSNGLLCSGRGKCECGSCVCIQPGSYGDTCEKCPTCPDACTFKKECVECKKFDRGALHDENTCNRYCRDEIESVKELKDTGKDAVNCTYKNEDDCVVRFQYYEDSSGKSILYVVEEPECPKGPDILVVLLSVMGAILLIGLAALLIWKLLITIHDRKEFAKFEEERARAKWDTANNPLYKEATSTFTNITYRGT

By IC50 is commonly meant the point on the concentration scale where inhibition reaches its midpoint. Under “concentration which inhibits 50% of the vitronectin binding to the isolated receptor”, `O=C(O)CC(Cc1ccc(OCCCNc2ccccn2)cc1)c1ccccc1` (centres unmarked) [3-phenyl-4-{4-[3-(pyridin-2-ylamino)propoxy]phenyl}butyric acid] registered an IC50 of 5.3 nM. Moreover, the “Inhibition of vitronectin binding to the receptor αvβ3” value (qualitative statement) is reported as “demonstrated experimentally”.
